Source: PubChem BioAssay AID179 (DTP/NCI, 2004)
Activity calls are given as the source filed them.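 Rule for the calls: active = compounds giving half or more protection of infected cells from virus-caused growth loss, again on retest; inactive = the rest.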 Where a SMILES comes first, the peptide text is derived from it. The star is where a group is joined. ONb = O=[N+]([O-])c1ccc(CO*)cc1; Boc = CC(C)(C)OC(=O)*

Test system: CEM cells HIV-1 protection, formazan growth assay
Assay: NCI AIDS Antiviral Assay
Conditions: for IC50: measured here: growth of uninfected CEM cells
Procedure, shortened: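 Steps: treat uninfected and HIV-1-infected human CEM cells at five drug levels; quantify growth by soluble formazan; retest any compound reaching 50% protection; classify actives from the retest.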

| Structure (SMILES) | EC50 [µM] | IC50 [µM] | outcome |
| --- | --- | --- | --- |
| Cc1cc(C)n2nc(N)c(C#N)c2c1C#N | > 12.9 | > 12.9 | – |
| C=C(C)CC1=C(C(=S)NCCO[Si](C)(C)C(C)(C)C)C(OCC)(OCC)C1=O | > 200 | 11.5 | – |
| CCCCCCCCCCCCCCCCOC1OC(CBr)C(O)C(O)C1O (centres undefined) | > 8.13 | > 8.13 | – |
| COC(=O)N/N=C(/CCCC(=O)Nc1cccc([N+](=O)[O-])c1)C(C#N)c1ccc(CC#N)cc1 (centres undefined) | – | – | inactive |
| COC(=O)CCC(=O)c1ccc2c(c1)CC1(Cc3ccccc3C1)C2 | > 200 | 46.8 | – |
| CC1CC(C)(C)OC(c2ccco2)O1 (centres undefined) | > 200 | > 200 | – |
| COCC12CCC(OC)C34C5CC6(O)C(OC)C=C(C5C6OC(=O)c5ccccc5)C(C(OC)C13)C4N(C)C2 (centres undefined) | – | – | inactive |
| Cc1ccccc1-n1c(=O)c2ncn(C3CCCO3)c2n(-c2ccccc2C)c1=S (centres undefined) | > 200 | > 200 | – |
| C#Cc1cccc(N2C(=O)CCC2=O)c1 | > 468 | 17.4 | – |
| CS(=O)(=O)c1nc(Cl)c(Cl)c(C#N)c1Cl | > 200 | 0.457 | – |
| O=C(C1OC1c1cccc([N+](=O)[O-])c1)C12CC3CC(CC(C3)C1)C2 (centres undefined) | > 200 | 3.47 | – |
| BrC1=CC=C2NC=CC3=CC=NC1C32 (centres undefined) | – | – | inactive |
| Cc1cn(C2CC(O)C(CO)C2C)c(=O)[nH]c1=O (centres undefined) | > 200 | > 200 | – |
| [N-]=[N+]=NC12CC3CC(CC(C3)C1)C2 | > 380 | > 380 | – |
| CC1=C/C(=N\O)C(C(O)(C(F)(F)F)C(F)(F)F)C(C)(C)C1 (centres undefined) | > 200 | 135 | – |
| O/N=C/c1ccc(O)c(O)c1 | > 1620 | 87.1 | – |
| CC(C)CC(NC(=O)OC(C)(C)C)C(=O)NC(CCC(=O)OCc1ccc([N+](=O)[O-])cc1)C(=O)OCc1ccc([N+](=O)[O-])cc1 (stereo not drawn) (Boc-Leu-Glu(ONb)-ONb; configuration not given here) | > 200 | 10.7 | – |

| Structure (SMILES) | EC50 [µM] | IC50 [µM] | outcome |
| --- | --- | --- | --- |
| O=C(O)C[S][Bi]([S]CC(=O)O)[S]CC(=O)O | – | – | inactive |
| CC(=O)Nc1ccc(C(=O)NN2C(=O)C(Cl)C2c2cc(Br)cc(Br)c2O)cc1 (centres undefined) | – | – | inactive |
| CN(C)CCCN1c2ccccc2Sc2ccc(Cl)cc21 | > 200 | 10.2 | – |
| O=C(CO)CC(=O)C(=O)Nc1cccc(C(F)(F)F)c1 | – | – | inactive |
| CNC(=O)CC1NC(=O)c2csc(n2)-c2ccc(-c3nc(C4=NC(C(=O)N5CCCC5C(N)=O)CO4)cs3)nc2-c2csc(n2)-c2csc(n2)C(C(C)C)NC(=O)CNC(=O)c2csc(n2)C(C(C)C)NC(=O)c2nc1sc2C (centres undefined) | > 10 | > 10 | – |
| Nc1nc2ncn(CC(O)COC(=O)c3ccccc3)c2c(=O)[nH]1 (centres undefined) | > 21.9 | > 21.9 | – |
| Nc1ccc(S(=O)(=O)NC(=O)c2ccccc2)cc1 | > 200 | > 200 | – |
| O=[P+](O)c1ccccn1 | – | – | inactive |
| CC(=O)O[C@@H](c1nccn1Cc1ccccc1)[C@H]1OC(C)(C)O[C@@H]1[C@H]1COC(C)(C)O1 | > 200 | > 200 | – |
| Cc1c(C)c2cc3ccoc3cc2oc1=O | > 83.2 | > 83.2 | – |
| COc1ccccc1-c1cc(B(O)O)ccc1OC | > 200 | 40.7 | – |
| N=C1SC2CCCCCCC2S1 (centres undefined) | > 200 | > 200 | – |
| CC(C)OP(=O)(OC(C)C)C(=NCCO)NNc1ccc([N+](=O)[O-])cc1 | > 339 | 29.5 | – |
| O=C(SCc1c(O)c2ccccc2oc1=O)c1ccccc1 | > 200 | 67.6 | – |
| O=C(NCCCl)Nc1ccc(S(=O)(=O)c2ccc([N+](=O)[O-])cc2)cc1 | > 200 | 16.2 | – |
| O=C1c2cc([N+](=O)[O-])ccc2NC1(c1c[nH]c2ccccc12)c1c[nH]c2ccc(Br)cc12 (centres undefined) | > 200 | 26.3 | – |
